# Experimental data: US11541049B2, “Tetrahydroisoquinoline derivatives, preparation process and use thereof” (SICHUAN KELUN-BIOTECH BIOPHARMACEUTICAL CO., LTD., priority 2018, dated 2023)
# Legend:
# [1] = biological target: human coagulation factor VIIa (Homo sapiens (Human), UniProt P08709); test: Determination of inhibition of factor VIIa; type: biochemical
# Description: Enzyme: human coagulation factor VIIa; manufacturer: Haematologic Technologies;
# Substrate: Boc-VPR-AMC; R&D System;
# Tissue factor: tissue factor F3; manufacturer: Sino Biological;
# The test compounds were dissolved in assay buffer (50 mM Hepes, 150 mM NaCl, 5 mM CaCl2, pH 7.4) at a final concentration of 10 μM and 1 μM. Coagulation factor VIIa and tissue factor were mixed at an equimolar concentration. After incubation at 37° C. for 15 minutes, the test compound was further added. Incubation was conducted at room temperature for 10 minutes. Then the substrate (Boc-VPR-AMC) was added to initiate the reaction. For reading fluorescence signal value, enzyme kinetic mode was used. The wavelength of excitation light was 380 nm, and the wavelength of emission light was 460 nm. The IC50 was calculated in a similar manner to experimental Example 1.
# [2] = biological target: human coagulation factor Xa (Homo sapiens (Human), UniProt P00742); test: Determination of inhibition of factor Xa; type: biochemical
# human coagulation factor Xa, sequence (P00742 whole entry, looked up): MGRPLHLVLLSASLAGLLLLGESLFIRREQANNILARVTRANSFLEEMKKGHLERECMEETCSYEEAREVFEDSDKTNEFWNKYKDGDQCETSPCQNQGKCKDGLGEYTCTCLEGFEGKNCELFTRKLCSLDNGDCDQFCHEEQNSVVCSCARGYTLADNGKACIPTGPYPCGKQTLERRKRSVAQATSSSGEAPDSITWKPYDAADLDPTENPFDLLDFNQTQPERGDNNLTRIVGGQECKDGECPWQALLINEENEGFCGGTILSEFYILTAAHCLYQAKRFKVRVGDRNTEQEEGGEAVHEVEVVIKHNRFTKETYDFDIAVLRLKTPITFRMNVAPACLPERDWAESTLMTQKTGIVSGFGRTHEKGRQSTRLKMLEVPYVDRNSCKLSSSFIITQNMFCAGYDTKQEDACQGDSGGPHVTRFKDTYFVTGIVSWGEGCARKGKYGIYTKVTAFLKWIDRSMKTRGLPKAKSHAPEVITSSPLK
# human coagulation factor Xa, sequence (P00742 whole entry, looked up): as above
# Description: Enzyme: human coagulation factor Xa; manufacturer: R&D System;
# Substrate: Mca-RPKPVE-Nval-WRK(Dnp)-NH2; manufacturer: R&D;
# The test compounds were dissolved in assay buffer (50 mM Tris, 150 mM NaCl, 10 mM CaCl2, 0.05% Brij35, pH 7.5) at a final concentration of 10 μM and 1 μM. Coagulation factor Xa and test compound were added to the well plate, and incubation was conducted at room temperature for 10 minutes after mixed thoroughly. The substrate (Mca-RPKPVE-Nval-WRK(Dnp)-NH2) was added to initiate the reaction. For reading fluorescence signal value, enzyme kinetic mode was used. The wavelength of excitation light was 320 nm, and the wavelength of emission light was 400 nm. The IC50 was calculated in a manner similar to experimental Example 1.
# [3] = system: human plasma; test: Effect on coagulation in vitro (aPTT and PT), human plasma; details: final concentration 10NM (so in the source), n = 3
# Description: aPTT reagent (purchased from Sysmex);
# PT reagent (purchased from Sysmex);
# The coagulation pathway includes the extrinsic coagulation pathway and the intrinsic coagulation pathway. The parameter associated with the extrinsic coagulation pathway is prothrombin time, expressed as PT; the parameter associated with the intrinsic coagulation pathway is activated partial thromboplatin time, expressed as aPTT.
# After anticoagulation, blood of different species (rabbit, human) was subjected to centrifugation. The upper layer of plasma was collected and divided into several aliquots. The test compounds were added to make the final concentration of test compound to be 10NM. Incubation was conducted at 37° C. after mixed thoroughly. Then the samples were put into a coagulation analyzer (Sysmex CA1500, Sysmex, Japan) for the aPTT and PT assays. Blank plasma (without test compound) was used as a reference, and the ratio values of aPTT and PT of all samples and blank plasmas were analyzed, the results are shown in table 3.
# [4] = Pharmacokinetics study in male SD rats, intravenous injection; type: in vivo
# Description: (§1) Pharmacokinetics characteristics were examined by administering compound of the present disclosure and the reference compound (BMS-962212) to male SD rats through intravenous injection (IV). Blood was collected at various time points after administration. The blood was anticoagulated with EDTA-K2. Plasma samples were obtained by centrifugation within 30 min after blood collection, and retained at −80° C. The plasma samples were processed to precipitate the proteins and then analyzed by LC-MS/MS.
# (§2) The pharmacokinetic parameters were calculated using WinNonlin 6.3 software by employing a non-compartmental model.
# [5] = Pharmacokinetics study in male rabbits, intravenous injection; type: in vivo
# Description: (§3) Pharmacokinetics properties were examined by administering compound of the present disclosure and the reference compound (BMS-962212) to male rabbits through intravenous injection (IV). Blood was collected at various time points after administration. The blood was anticoagulated with EDTA-K2. Plasma samples were obtained by centrifugation, and retained at −80° C. The plasma samples were processed to precipitate the proteins and then analyzed by LC-MS/MS.
# as §2
# [6] = Pharmacokinetics study in Beagle dogs, intravenous injection; type: in vivo, Beagle dog
# Description: Pharmacokinetics properties were examined by administering compound of the present disclosure and the reference compound (BMS-962212) to Beagle dog through intravenous injection (IV). Blood was collected at various time points after administration. The blood was anticoagulated with EDTA-K2. Plasma samples were obtained by centrifugation, and retained at −80° C. The plasma samples were processed to precipitate the proteins and then analyzed by LC-MS/MS.
# as §2
# [7] = Repeated dose toxicity study in SD rats, intravenous infusion, daily for 14 days; type: in vivo; details: rat, in vivo, daily for 14 days, SD rats, read-out: No-observed-adverse-effect level (NOAEL)
# Description: The administration was repeated daily for 14 days, while clinical observation, body weight and food intake were recorded. […] Observation by gross anatomy and examination of histopathology were also conducted.
# [8] = Blood exposure after intravenous administration in various animal species (summary); type: in vivo; details: rat, rabbit, dog
# Description: as §1, §3
# Pharmacokinetics properties were examined by administering compound of the present disclosure and the reference compound (BMS-962212) to Beagle dog through intravenous injection (IV). Blood was collected at various time points after administration. The blood was anticoagulated with EDTA-K2. […] The plasma samples were processed to precipitate the proteins and then analyzed by LC-MS/MS.
# [9] = in vivo; details: SD, rat, iv
# Description: (§4) The clinical observation was carried out for 7 days after a single dose, and the body weight of the animals were measured. On the 8th day, blood samples were taken after anesthesia for detection of hematology, blood biochemistry, coagulation and other indicators. Observation was also conducted by gross anatomy.
# [10] = system: SD rats; test: Single dose toxicity study in SD rats, intravenous infusion; details: 50, 75, 100, 150, 200 mg/kg, intravenous infusion (2 ml/min)
# Description: as §4
# [11] = male, SD, rat, plasma, rats, 1 mg/kg
# human coagulation factor VIIa, sequence (P08709 whole entry, looked up): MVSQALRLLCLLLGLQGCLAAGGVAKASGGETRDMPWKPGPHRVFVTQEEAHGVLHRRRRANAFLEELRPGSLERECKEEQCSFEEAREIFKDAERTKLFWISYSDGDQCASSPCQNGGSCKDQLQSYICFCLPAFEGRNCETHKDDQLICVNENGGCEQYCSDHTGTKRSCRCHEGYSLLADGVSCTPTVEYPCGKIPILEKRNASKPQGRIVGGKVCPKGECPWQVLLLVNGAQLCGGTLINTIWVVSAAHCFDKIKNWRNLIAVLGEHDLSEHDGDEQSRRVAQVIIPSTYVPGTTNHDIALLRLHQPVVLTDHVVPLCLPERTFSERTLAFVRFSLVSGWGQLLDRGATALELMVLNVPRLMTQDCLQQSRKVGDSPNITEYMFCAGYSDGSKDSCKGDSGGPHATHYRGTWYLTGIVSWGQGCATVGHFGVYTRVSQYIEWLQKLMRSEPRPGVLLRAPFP
# human coagulation factor VIIa, sequence (P08709 whole entry, looked up): as above
# human coagulation factor VIIa, sequence (P13726 whole entry partner, looked up): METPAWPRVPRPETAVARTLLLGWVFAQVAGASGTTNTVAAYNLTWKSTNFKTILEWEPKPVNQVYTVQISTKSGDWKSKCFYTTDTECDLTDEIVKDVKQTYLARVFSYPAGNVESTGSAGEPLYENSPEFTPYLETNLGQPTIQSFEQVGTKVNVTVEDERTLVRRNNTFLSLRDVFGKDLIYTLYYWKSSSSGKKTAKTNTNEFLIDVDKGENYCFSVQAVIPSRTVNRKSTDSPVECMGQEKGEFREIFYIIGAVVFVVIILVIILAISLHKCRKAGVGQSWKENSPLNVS
compound,measurement,setting,value
"N[C@@H](CCCCNC(=O)CN1CC=C(c2cccc3c2CCN(C(=O)[C@H]2CC(c4cccc(Cl)c4F)=NO2)[C@@H]3C(=O)Nc2ccc(C(=O)O)cc2)CC1)C(=O)O [Example 5, 4-((S)-5-(1-(2-(((S)-5-amino-5-carboxypentyl)amino)-2-oxoethyl)-1,2,3,6-tetrahydropyridin-4-yl)-2-((R)-3-(3-chloro-2-fluorophenyl)-4,5-dihydroisoxazole-5-carbonyl)-1,2,3,4-tetrahydroisoquinoline-1-carboxamido)benzoic acid]",inhibitory effect on coagulation factor VIIa (in words),[1],no significant inhibitory effect
same,IC50,"[1]; tested at final concentration of 10 μM and 1 μM, with tissue factor",> 10 µM
same,inhibitory effect on coagulation factor Xa (in words),[2],no significant inhibitory effect
same,IC50,[2]; tested at final concentration of 10 μM and 1 μM,~10 µM
same,Ratio of PT to that of blank plasma,[3],1.03
same,Ratio of aPTT to that of blank plasma,[3],2.95
same,AUC(0-inf),[4]; [11],2890 ± 473 ng·h/mL
same,AUC(0-t),[4]; [11],2890 ± 473 ng·h/mL
same,Cmax,[4]; [11],2990 ± 629 ng/mL
same,clearance,[4]; [11],5.88 ± 1.07 mL/min/kg
same,half-life,[4]; [11],0.78 ± 0.06 h
same,AUClast relative to that of the reference compound,"[4]; rat plasma, 1 mg/kg vs 5 mg/kg reference, dosage normalized",3.53 times
same,T1/2 relative to that of the reference compound,"[4]; rat, 1 mg/kg vs 5 mg/kg reference",4.11 times
same,Cmax relative to that of the reference compound,"[4]; rat, 1 mg/kg vs 5 mg/kg reference, dosage normalized",1.35 times
same,AUClast relative to that of the reference compound,[5]; 1 mg/kg each,12.04 times
same,Cmax relative to that of the reference compound,[5]; 1 mg/kg each,4.74 times
same,T1/2 relative to that of the reference compound,[5]; 1 mg/kg each,2.65 times
same,AUC(0-inf),"[5]; male, rabbit, plasma, 1 mg/kg",5740 ± 2270 ng·h/mL
same,AUC(0-t),"[5]; male, rabbit, plasma, 1 mg/kg",5730 ± 2270 ng·h/mL
same,Cmax,"[5]; male, rabbit, plasma, 1 mg/kg",6950 ± 1900 ng/mL
same,Vd,"[5]; male, rabbit, plasma, 1 mg/kg",0.3 ± 0.09 L/kg
same,clearance,"[5]; male, rabbit, plasma, 1 mg/kg",3.18 ± 1.06 mL/min/kg
same,half-life,"[5]; male, rabbit, plasma, 1 mg/kg",1.14 ± 0.26 h
same,apparent volume of distribution as share of that of the reference compound,[5]; same dosage 1 mg/kg,23%
same,AUClast relative to that of the reference compound,[6]; 0.5 mg/kg each,20.38 times
same,Cmax relative to that of the reference compound,[6]; 0.5 mg/kg each,2.67 times
same,T1/2 relative to that of the reference compound,[6]; 0.5 mg/kg each,7.25 times
same,AUC(0-inf),"[6]; dog, plasma, 0.5 mg/kg",18100 ± 683 ng·h/mL
same,AUC(0-t),"[6]; dog, plasma, 0.5 mg/kg",17200 ± 370 ng·h/mL
same,Cmax,"[6]; dog, plasma, 0.5 mg/kg",3950 ± 808 ng/mL
same,Vd,"[6]; dog, plasma, 0.5 mg/kg",0.24 ± 0.02 L/kg
same,clearance,"[6]; dog, plasma, 0.5 mg/kg",0.46 ± 0.02 mL/min/kg
same,half-life,"[6]; dog, plasma, 0.5 mg/kg",6.02 ± 0.8 h
same,apparent volume of distribution as share of that of the reference compound,[6]; same dosage 0.5 mg/kg,34%
same,NOAEL at 14 days,[7],60 mg/kg
same,exposure in blood relative to that of BMS-962212,[8],3-25 times
same,MTD at 7 days,[9],≥ 200 mg/kg
same,Single dose toxicity study in SD rats: observation,[10],No abnormality was found
